Assay results: ChEMBL document CHEMBL1201861, “Genomics of Drug Sensitity in Cancer screening data, Wellcome Trust Sanger Institute”
“And” between values parts separate entries of the source, which are not always exact repeats. Equal values may be shown once. Where a SMILES comes first, the peptide text is derived from it. The star is where a group is joined. Cbz = O=C(OCc1ccccc1)*

What was measured:
Test in all cases: cells
LOX IMVI = type: functional, cell-based, Homo sapiens
KY821 = type: functional, cell-based, Homo sapiens;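 also: growth inhibition of human KY821 cells, read out by a cell viability assay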
C8166 = type: functional, cell-based, Homo sapiens;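 also: growth inhibition of human C8166 cells measured by a cell viability assay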
KGN = type: functional, cell-based, Homo sapiens;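 also: growth inhibition of KGN cells, read out with a cell viability assay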
BB49-HNC = type: functional, cell-based, Homo sapiens;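 also: cell viability assay read-out, reported as inhibition of BB49-HNC cell growth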
BB65-RCC = type: functional, cell-based, Homo sapiens;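 also: growth inhibition of the cell line, measured with a cell viability assay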
SHP77 = type: functional, cell-based, Homo sapiens, SHP-77;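 also: growth inhibition of human SHP-77 cells measured by a cell viability assay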
LC-2-ad = type: functional, cell-based, Homo sapiens;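 also: growth inhibition of human LC-2-ad cells, read out with a cell viability assay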
JAR = type: functional, cell-based, Homo sapiens;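 also: growth inhibition of human JAR cells determined with a cell viability assay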
DEL = type: functional, cell-based, Homo sapiens;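 also: growth inhibition of the human DEL cell line, read out with a cell viability assay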
KE-37 = type: functional, cell-based, Homo sapiens;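 also: growth inhibition of KE-37 cells, read out with a cell viability assay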
DB = type: functional, cell-based, Homo sapiens
RS4-11 = type: functional, cell-based, Homo sapiens;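 also: growth inhibition of RS4-11 cells, read out by a cell viability assay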
CGTH-W-1 = type: functional, cell-based, Homo sapiens;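 also: growth inhibition of human CGTH-W-1 cells measured by cell viability assay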
HH = type: functional, cell-based, Homo sapiens
NCI-H1963 = type: functional, cell-based, Homo sapiens;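 also: cell growth inhibition of the human line, determined with a cell viability assay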
Mo = type: functional, cell-based, Homo sapiens
MSTO-211H = type: functional, cell-based, Homo sapiens
NOS-1 = type: functional, cell-based, Homo sapiens;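 also: growth inhibition of the human NOS-1 cell line, read out with a cell viability assay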
HCC2218 = type: functional, cell-based, Homo sapiens;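 also: cell viability assay read-out, with IC50 given as the concentration that inhibits growth of the cell line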
DOHH-2 = type: functional, cell-based, Homo sapiens;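 also: growth inhibition of human DOHH-2 cells, read out with a cell viability assay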
LAN-6 = type: functional, cell-based, Homo sapiens;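 also: growth inhibition of LAN-6 cells, determined with a cell viability assay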
COLO-829 = type: functional, cell-based, Homo sapiens
KG-1 = type: functional, cell-based, Homo sapiens;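 also: growth inhibition of KG-1 cells, read out by a cell viability assay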
LU-139 = type: functional, cell-based, Homo sapiens
LU-134-A = type: functional, cell-based, Homo sapiens
TE-10 = type: functional, cell-based, Homo sapiens;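 also: growth inhibition of TE-10 cells, measured by a cell viability assay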
MZ2-MEL = type: functional, cell-based, Homo sapiens;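 also: growth inhibition of MZ2-MEL cells read out with a cell viability assay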
TE-8 = type: functional, cell-based, Homo sapiens;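 also: growth inhibition of TE-8 cells, measured with a cell viability readout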
MEG-01 = type: functional, cell-based, Homo sapiens;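 also: growth inhibition of MEG-01 cells, read out by a cell viability assay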
P30-OHK = type: functional, cell-based, Homo sapiens;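 also: growth inhibition of the P30-OHK cell line, read out with a cell viability assay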
NB69 = type: functional, cell-based, Homo sapiens;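 also: growth inhibition of NB69 cells, determined by a cell viability assay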
IST-MES1 = type: functional, cell-based, Homo sapiens;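 also: growth inhibition of IST-MES1 cells, measured with a cell viability assay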
VA-ES-BJ = type: functional, cell-based, Homo sapiens;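 also: growth inhibition of the VA-ES-BJ cell line, read out by a cell viability assay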
EW-16 = type: functional, cell-based, Homo sapiens;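 also: growth inhibition of human EW-16 cells, read out as cell viability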
KM12 = type: functional, cell-based, Homo sapiens;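 also: KM12 cell growth inhibition, read out with a cell viability assay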
LB831-BLC = type: functional, cell-based, Homo sapiens;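 also: growth inhibition of LB831-BLC cells, read out with a cell viability assay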
NTERA-2-cl-D1 = type: functional, cell-based, Homo sapiens;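 also: inhibition of cell growth, measured with a cell viability assay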
DMS-114 = type: functional, cell-based, Homo sapiens
ES7 = type: functional, cell-based, Homo sapiens;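 also: growth inhibition of cultured human ES7 cells, read out as cell viability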
SK-MEL-2 = type: functional, cell-based, Homo sapiens;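 also: growth inhibition of human SK-MEL-2 cells measured with a cell viability assay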
RCC10RGB = type: functional, cell-based, Homo sapiens;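 also: growth inhibition of human RCC10RGB cells, read out by a cell viability assay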
HEL = type: functional, cell-based, Homo sapiens;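 also: growth inhibition of HEL cells, read out with a cell viability assay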
ES4 = type: functional, cell-based, Homo sapiens;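 also: growth inhibition of human ES4 cells, read out by a cell viability assay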
ES3 = type: functional, cell-based, Homo sapiens;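 also: growth inhibition of ES3 cells, read out with a cell viability assay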
KYSE-270 = type: functional, cell-based; conditions: Homo sapiens;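 also: cell growth inhibition measured with a viability assay in the human KYSE-270 line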
K562 = type: functional, cell-based, Homo sapiens
LAMA-84 = type: functional, cell-based, Homo sapiens;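 also: growth inhibition of LAMA-84 cells, read out with a cell viability assay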
TGBC24TKB = type: functional, cell-based; conditions: Homo sapiens;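 also: growth inhibition of human TGBC24TKB cells, read out with a cell viability assay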
K5 = type: functional, cell-based, Homo sapiens

Cc1ccc(C(=O)Nc2ccc(CN3CCN(C)CC3)c(C(F)(F)F)c2)cc1C#Cc1cnc2cccnn12 [PONATINIB]
IC50 (LOX IMVI; Homo sapiens, LOX IMVI): > 0.512 µM
IC50 (KY821; Homo sapiens, KY821): > 0.512 µM
IC50 (C8166; Homo sapiens, C8166): > 0.512 µM
IC50 (KGN; Homo sapiens, KGN): > 0.512 µM
IC50 (BB49-HNC; Homo sapiens, BB49-HNC): > 0.512 µM
IC50 (BB65-RCC; Homo sapiens, BB65-RCC): > 0.512 µM
IC50 (SHP77; Homo sapiens, SHP77): > 0.512 µM
IC50 (LC-2-ad; Homo sapiens, LC-2-ad): 0.243 µM
IC50 (JAR; Homo sapiens, JAR): > 0.512 µM
IC50 (DEL; Homo sapiens, DEL): > 0.512 µM
IC50 (KE-37; Homo sapiens, KE-37): > 0.512 µM
IC50 (DB; Homo sapiens, DB): > 0.512 µM
IC50 (RS4-11; Homo sapiens, RS4-11): > 0.512 µM
IC50 (CGTH-W-1; Homo sapiens, CGTH-W-1): 0.00169 µM
IC50 (HH; Homo sapiens, HH): > 0.512 µM
IC50 (NCI-H1963; Homo sapiens, NCI-H1963): > 0.512 µM
IC50 (Mo; Homo sapiens, Mo): > 0.512 µM
IC50 (MSTO-211H; Homo sapiens, MSTO-211H): > 0.512 µM
IC50 (NOS-1; Homo sapiens, NOS-1): 0.244 µM
IC50 (HCC2218; Homo sapiens, HCC2218): > 0.512 µM
IC50 (DOHH-2; Homo sapiens, DOHH-2): 0.048 µM
IC50 (LAN-6; Homo sapiens, LAN-6): > 0.512 µM
IC50 (COLO-829; Homo sapiens, COLO-829): > 0.512 µM
IC50 (KG-1; Homo sapiens, KG-1): 0.0329 µM
IC50 (LU-139; Homo sapiens, LU-139): > 0.512 µM
IC50 (LU-134-A; Homo sapiens, LU-134-A): > 0.512 µM
IC50 (TE-10; Homo sapiens, TE-10): > 0.512 µM
IC50 (MZ2-MEL; Homo sapiens, MZ2-MEL): > 0.512 µM
IC50 (TE-8; Homo sapiens, TE-8): > 0.512 µM
IC50 (MEG-01; Homo sapiens, MEG-01): < 0.002 µM
IC50 (P30-OHK; Homo sapiens, P30-OHK): 0.157 µM
IC50 (NB69; Homo sapiens, NB69): > 0.512 µM
IC50 (IST-MES1; Homo sapiens, IST-MES1): 0.268 µM
IC50 (VA-ES-BJ; Homo sapiens, VA-ES-BJ): > 0.512 µM
IC50 (EW-16; Homo sapiens, EW-16): > 0.512 µM
IC50 (KM12; Homo sapiens, KM12): 0.0974 µM
IC50 (LB831-BLC; Homo sapiens, LB831-BLC): > 0.512 µM
IC50 (NTERA-2-cl-D1; Homo sapiens, NTERA-2-cl-D1): > 0.512 µM
IC50 (DMS-114; Homo sapiens, DMS-114): > 0.512 µM
IC50 (ES7; Homo sapiens, ES7): > 0.512 µM
IC50 (SK-MEL-2; Homo sapiens, SK-MEL-2): > 0.512 µM
IC50 (RCC10RGB; Homo sapiens, RCC10RGB): > 0.512 µM
IC50 (HEL; Homo sapiens, HEL): > 0.512 µM
IC50 (ES4; Homo sapiens, ES4): > 0.512 µM
IC50 (ES3; Homo sapiens, ES3): > 0.512 µM
IC50 (KYSE-270): > 0.512 µM
IC50 (K562; Homo sapiens, K562): > 0.512 µM
IC50 (LAMA-84; Homo sapiens, LAMA-84): < 0.002 µM
IC50 (TGBC24TKB): > 0.512 µM
IC50 (K5; Homo sapiens, K5): > 0.512 µM

CC(C)C[C@@H](C=O)NC(=O)[C@H](CC(C)C)NC(=O)[C@H](CC(C)C)NC(=O)OCc1ccccc1 [MG-132] (Cbz-Leu-Leu-Leu-aldehyde)
IC50 (LOX IMVI; Homo sapiens, LOX IMVI): > 1 µM
IC50 (LOX IMVI; lox imvi): > 1 µM
IC50 (KY821; ky821): > 1 µM
IC50 (C8166; c8166): > 1 µM
IC50 (KGN; Homo sapiens, KGN): > 1 µM
IC50 (KGN; kgn): > 1 µM
IC50 (BB49-HNC; bb49-hnc): 0.491 µM and > 1 µM
IC50 (BB65-RCC; bb65-rcc): 0.568 µM and > 1 µM
IC50 (SHP77; shp-77): > 1 µM
IC50 (LC-2-ad; Homo sapiens, LC-2-ad): > 1 µM
IC50 (LC-2-ad; lc-2-ad): > 1 µM
IC50 (JAR; jar): > 1 µM
IC50 (DEL; del): > 1 µM
IC50 (KE-37; ke-37): 0.133 µM and 0.639 µM
IC50 (DB; db): > 1 µM
IC50 (RS4-11; rs4-11): > 1 µM and 0.956 µM
IC50 (CGTH-W-1; cgth-w-1): > 1 µM
IC50 (HH; Homo sapiens, HH): 0.329 µM
IC50 (HH; hh): 0.571 µM
IC50 (NCI-H1963; Homo sapiens, NCI-H1963): > 1 µM
IC50 (NCI-H1963; nci-h1963): > 1 µM
IC50 (Mo; mo): 0.518 µM and > 1 µM
IC50 (MSTO-211H; msto-211h): > 1 µM
IC50 (NOS-1; nos-1): > 1 µM
IC50 (HCC2218; Homo sapiens, HCC2218): > 1 µM
IC50 (HCC2218; hcc2218): > 1 µM
IC50 (DOHH-2; dohh-2): > 1 µM
IC50 (LAN-6; lan-6): 0.313 µM and > 1 µM
IC50 (COLO-829; colo-829): 0.243 µM and > 1 µM
IC50 (KG-1; kg-1): > 1 µM
IC50 (LU-139; lu-139): > 1 µM
IC50 (LU-134-A; Homo sapiens, LU-134-A): > 1 µM
IC50 (LU-134-A; lu-134-a): > 1 µM
IC50 (TE-10; te-10): 0.964 µM and > 1 µM
IC50 (MZ2-MEL; mz2-mel): 0.176 µM and > 1 µM
IC50 (TE-8; Homo sapiens, TE-8): 0.343 µM
IC50 (TE-8; te-8): 0.27 µM
IC50 (MEG-01; meg-01): > 1 µM
IC50 (P30-OHK; p30-ohk): > 1 µM
IC50 (NB69; nb69): > 1 µM
IC50 (IST-MES1; ist-mes1): > 1 µM
IC50 (VA-ES-BJ; va-es-bj): 0.223 µM and > 1 µM
IC50 (EW-16; ew-16): > 1 µM
IC50 (KM12; km12): 0.855 µM and > 1 µM
IC50 (LB831-BLC; lb831-blc): 0.193 µM and 0.476 µM
IC50 (NTERA-2-cl-D1; ntera-2-cl-d1): 0.0577 µM and 0.426 µM
IC50 (DMS-114; dms-114): > 1 µM
IC50 (ES7; es7): 0.897 µM and > 1 µM
IC50 (SK-MEL-2; sk-mel-2): > 1 µM
IC50 (RCC10RGB; Homo sapiens, RCC10RGB): > 1 µM
IC50 (RCC10RGB; rcc10rgb): > 1 µM
IC50 (HEL; hel): 0.185 µM and > 1 µM
IC50 (ES4; es4): > 1 µM
IC50 (ES3; es3): > 1 µM
IC50 (K562; k562): > 1 µM
IC50 (LAMA-84; lama-84): 0.219 µM and > 1 µM
IC50 (TGBC24TKB): > 1 µM
IC50 (K5; k5): > 1 µM
